Measured values from patent US20250295732A1, “COMPOSITIONS AND METHODS FOR ACTIVATING INNATE IMMUNITY” (Zoetis Services LLC, priority 2021, published 2025).

Assays:
Assay type in all cases: cell-based
[1] = tested on: bovine monocyte-derived macrophages; experiment: Flow cytometric surface marker expression after LPS; settings: 24 hr following LPS after CATH2 removal and 3-day rest; vs vehicle
Description: (§1) Peripheral blood mononuclear cells (PBMC) were isolated from bovine blood using ficoll gradients. Bovine monocytes were isolated from PBMC using magnetic assisted cell sorting to positively select for CD14+ cells using anti-human CD14 microbeads (Miltenyi Biotec). Purified bovine blood CD14+ monocytes were differentiated into macrophages using an M2-skewing differentiation factor (recombinant bovine M-CSF) over 7 days then exposed to CATH2 or a vehicle control in the presence of bovine casein to mimic aspects of the mammary gland for 24 hr. […] Following the rest period, a subset of vehicle- and CATH2-trained monocyte-derived macrophages were assessed for epigenetic and transcriptomic changes. The remaining cells were challenged with LPS or E. coli bioparticle labeled with pH-sensitive pHrodo green dye and key parameters for macrophage activation/immune response were assessed including glycolytic activity, surface marker expression, gene expression, cytokine production, phagocytosis, reactive nitrogen species production, and miRNA profiling.
Expression of surface markers on bovine monocyte-derived macrophages and cells isolated from bovine milk were assessed using flow cytometry. […] Following incubation with live/dead stain and antibodies, labeled cells were washed, and then analyzed on a ZE5 CellAnalyzer (BioRad) for monocyte-derived macrophages and a FACS Canto II (BD) for milk cells. […]

[2] = tested on: bovine monocyte-derived macrophages; experiment: Reactive nitrogen species (nitrite, Griess Reagent System); settings: E. coli bioparticles 10 μg/mL 24 hours after CATH2 24 hr and 3-day rest; vs vehicle
Description: as §1, with “profiling. Nitrite, a primary breakdown product of nitric oxide, in cell culture supernatant were quantified using Griess Reagent System (Promega) according to manufacturer's instructions.” for “profiling.”

[3] = tested on: bovine monocyte-derived macrophages; experiment: mRNASeq transcriptome analysis; settings: for Number of significantly differentially expressed genes, P < 0.01 & |log2FC| > 1 / Number of significantly differentially expressed genes, P < 0.05 & |log2FC| > 1 / Number of significantly differentially expressed genes, Padj < 0.05 & |log2FC| > 0.585 / Number of significantly differentially expressed genes, Padj < 0.05 & |log2FC| > 1 / Number of significantly differentially expressed genes, Padj < 0.1 & |log2FC| > 1: CATH2_vs_vehicle
Description: Peripheral blood mononuclear cells (PBMC) were isolated from bovine blood using ficoll gradients. Bovine monocytes were isolated from PBMC using magnetic assisted cell sorting to positively select for CD14+ cells using anti-human CD14 microbeads (Miltenyi Biotec). Purified bovine blood CD14+ monocytes were differentiated into macrophages using an M2-skewing differentiation factor (recombinant bovine M-CSF) over 7 days then exposed to CATH2 or a vehicle control in the presence of bovine casein to mimic aspects of the mammary gland for 24 hr. Following treatment, vehicle and drug were removed and cells were washed to eliminate residual drug and monocyte-derived macrophages were rested for 3 days in order to assess reprogramming. Following the rest period, a subset of vehicle- and CATH2-trained monocyte-derived macrophages were assessed for epigenetic and transcriptomic changes. The remaining cells were challenged with LPS or E. coli bioparticle labeled with pH-sensitive pHrodo green dye and key parameters for macrophage activation/immune response were assessed including glycolytic activity, surface marker expression, gene expression, cytokine production, phagocytosis, reactive nitrogen species production, and miRNA profiling.
Bovine monocyte-derived macrophages were lysed in Buffer RLT with addition of (3-mercaptoethanol (QIAGEN) and stored at −80° C. until miRNA/mRNA isolations could be performed. Total RNA including miRNA was isolated from cell lysates using the miRNeasy Tissues/Cells Advanced kit (QIAGEN) following the manufacturer's instructions. mRNA and miRNA libraries were prepared using the TruSeq Stranded mRNA Library Prep Kit (Illumina) and QIAseq miRNA Library Kit, respectively (QIAGEN) according to the manufacturer's instructions. Libraries were run on the Illumina NextSeq550 System. Sequencing data were analyzed using CLC Genomics Workbench software and QIAGEN Ingenuity Pathway Analysis (IPA).

[4] = tested on: bovine monocyte-derived macrophages; experiment: Phagocytosis of pHrodo green-labeled E. coli bioparticle (IncuCyte); settings: <4 hr from challenge with E. coli bioparticles (10 μg/mL); after CATH2 24 hr and 3-day rest; vs vehicle
Description: as §1, with “profiling. In brief, E. coli bioparticle labeled with pHrodo-green pH sensitive dye (Invitrogen) were added to monocyte-derived macrophages and phase and green fluorescence was captured over time using the S3 IncuCyte® Live-Cell Analysis System (Essen Bioscience) over a period of 24-hr. […]” for “profiling.”

[5] = 0 hrs_post_CATH2 (prior to CATH2 treatment)
[6] = 0 hrs_post_LPS (after CATH2 and 3-day rest)

“RFGRFLRKIRRFRPKVTITIQGSARFG [CATH2, cathelicidin 2 peptide]” was tested, and the “Surface marker expression (CD14, CD80, MHC II, CD163)” value [1] was “enhanced expression of multiple surface markers”, the “RNS (nitrite) response to E. coli bioparticle challenge” value [2] was “enhanced production of nitrogen oxide species/reactive nitrogen species (RNS) responses” and the “CD14 and CD80 gene expression (RNA sequence data)” value ([3]; 8 hr following LPS stimulation, CATH2 vs vehicle) was “significantly upregulated”. For the same sequence, the “Number of significantly differentially expressed genes, P < 0.01 & |log2FC| > 1” value [3, 5] was 0, the “Number of significantly differentially expressed genes, P < 0.05 & |log2FC| > 1” value [3, 5] was 0 and the “Number of significantly differentially expressed genes, Padj < 0.05 & |log2FC| > 0.585” value [3, 5] was 0. For the same sequence, the “Number of significantly differentially expressed genes, Padj < 0.05 & |log2FC| > 1” value [3, 5] was 0, the “Number of significantly differentially expressed genes, Padj < 0.1 & |log2FC| > 1” value [3, 5] was 0 and the “Number of significantly differentially expressed genes, P < 0.01 & |log2FC| > 1” value [3, 6] was 169. For the same sequence, the “Number of significantly differentially expressed genes, P < 0.05 & |log2FC| > 1” value [3, 6] was 244, the “Number of significantly differentially expressed genes, Padj < 0.05 & |log2FC| > 0.585” value [3, 6] was 171 and the “Number of significantly differentially expressed genes, Padj < 0.05 & |log2FC| > 1” value [3, 6] was 96. The “Number of significantly differentially expressed genes, Padj < 0.1 & |log2FC| > 1” value [3, 6] was 134, the “Number of significantly differentially expressed genes, P < 0.01 & |log2FC| > 1” value ([3]; 8 hrs_post_CATH2) was 6 and the “Number of significantly differentially expressed genes, P < 0.05 & |log2FC| > 1” value ([3]; 8 hrs_post_CATH2) was 27. For the same sequence, the “Number of significantly differentially expressed genes, Padj < 0.05 & |log2FC| > 0.585” value ([3]; 8 hrs_post_CATH2) was 0, the “Number of significantly differentially expressed genes, Padj < 0.05 & |log2FC| > 1” value ([3]; 8 hrs_post_CATH2) was 0 and the “Number of significantly differentially expressed genes, Padj < 0.1 & |log2FC| > 1” value ([3]; 8 hrs_post_CATH2) was 0. The “Number of significantly differentially expressed genes, P < 0.01 & |log2FC| > 1” value ([3]; 8 hrs_post_LPS) was 509, the “Number of significantly differentially expressed genes, P < 0.05 & |log2FC| > 1” value ([3]; 8 hrs_post_LPS) was 593 and the “Number of significantly differentially expressed genes, Padj < 0.05 & |log2FC| > 0.585” value ([3]; 8 hrs_post_LPS) was 962. The “Number of significantly differentially expressed genes, Padj < 0.05 & |log2FC| > 1” value ([3]; 8 hrs_post_LPS) was 479, the “Number of significantly differentially expressed genes, Padj < 0.1 & |log2FC| > 1” value ([3]; 8 hrs_post_LPS) was 532 and the “Number of significantly differentially expressed genes, P < 0.01 & |log2FC| > 1” value ([3]; 24 hrs_post_CATH2) was 11. For the same sequence, the “Number of significantly differentially expressed genes, P < 0.05 & |log2FC| > 1” value ([3]; 24 hrs_post_CATH2) was 28, the “Number of significantly differentially expressed genes, Padj < 0.05 & |log2FC| > 0.585” value ([3]; 24 hrs_post_CATH2) was 0 and the “Number of significantly differentially expressed genes, Padj < 0.05 & |log2FC| > 1” value ([3]; 24 hrs_post_CATH2) was 0. The “Number of significantly differentially expressed genes, Padj < 0.1 & |log2FC| > 1” value ([3]; 24 hrs_post_CATH2) was 0, the “Number of significantly differentially expressed genes, P < 0.01 & |log2FC| > 1” value ([3]; 24 hrs_post_LPS) was 328 and the “Number of significantly differentially expressed genes, P < 0.05 & |log2FC| > 1” value ([3]; 24 hrs_post_LPS) was 393. For the same sequence, the “Number of significantly differentially expressed genes, Padj < 0.05 & |log2FC| > 0.585” value ([3]; 24 hrs_post_LPS) was 520, the “Number of significantly differentially expressed genes, Padj < 0.05 & |log2FC| > 1” value ([3]; 24 hrs_post_LPS) was 279 and the “Number of significantly differentially expressed genes, Padj < 0.1 & |log2FC| > 1” value ([3]; 24 hrs_post_LPS) was 330. The “DEG related to Rho family signaling” value ([3]; CATH2 vs vehicle) was “downregulated”, the “Type I interferon induced genes (e.g. ISG15, MX2, OAS2)” value ([3]; CATH2 vs vehicle) was “significantly upregulated” and the “Immune response gene expression (IL1A/B, IL6, IL8, IL12, IL23, CCL2, NOS2, IL10)” value ([3]; pre- and post-LPS after CATH2 treatment and 3-day rest, vs vehicle) was “significantly upregulated”. The “Phagocytosis of E. coli bioparticles” value [4] was “enhanced phagocytosis of E. coli bioparticles”.
